The values below come from ChEMBL document CHEMBL6153154, “Novel Carbocyclic Phenylpyrrolidinone Urea Compounds as FPR2 Agonists for Treating Atherosclerosis and Heart Failure” (ACS Med Chem Lett, 2025).

The assay addresses T1, N-formyl peptide receptor 2 (Homo sapiens, UniProt P25090).
T1 sequence (P25090 whole entry): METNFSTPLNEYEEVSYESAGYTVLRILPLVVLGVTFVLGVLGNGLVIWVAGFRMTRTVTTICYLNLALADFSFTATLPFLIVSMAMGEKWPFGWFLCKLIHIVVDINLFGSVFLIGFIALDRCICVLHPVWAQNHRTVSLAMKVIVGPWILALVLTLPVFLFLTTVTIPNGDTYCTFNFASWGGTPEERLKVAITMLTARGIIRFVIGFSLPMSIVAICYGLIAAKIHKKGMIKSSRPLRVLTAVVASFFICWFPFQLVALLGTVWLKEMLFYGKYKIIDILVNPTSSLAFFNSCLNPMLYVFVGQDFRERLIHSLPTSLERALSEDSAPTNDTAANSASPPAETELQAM
The assay is described as follows: Agonist activity at human FPR2 expressed in CHO cells assessed as forskolin-induced cAMP level incubated for 30 mins in presence of IBMX by HTRF HiRange cAMP assay. The class given is functional, cell-based. (Cyclic AMP is a second messenger, typically raised through Gs and lowered through Gi signalling.)

`O=C(Nc1ccc(Cl)cc1F)N[C@@H]1CCN(c2ccc(C3(CN4CCCC4=O)CC3)c(F)c2F)C1=O`: the EC50 was 0.32 nM.
Then `CC(C)S(=O)(=O)CC1(c2ccc(N3CC[C@@H](NC(=O)Nc4ccc(Cl)cc4F)C3=O)c(F)c2F)CC1`, with 0.49 nM.
Under `CC(=O)N(C)CC1(c2ccc(N3CC[C@@H](NC(=O)Nc4ccc(C(F)(F)F)cc4F)C3=O)c(F)c2F)CC1` stands 0.1 nM; under `CP(C)(=O)CC1(c2ccc(N3CC[C@@H](NC(=O)Nc4ccc(C(F)(F)F)cc4F)C3=O)c(F)c2F)CCCC1`, 0.48 nM; under `O=C(Nc1ccc(C(F)(F)F)cc1F)N[C@@H]1CCN(c2ccc(C3(CN4CCCC4=O)CC3)c(F)c2F)C1=O`, 0.23 nM.
Under `CC(=O)NCC1(c2ccc(N3CC[C@@H](NC(=O)Nc4ccc(Cl)cc4F)C3=O)c(F)c2F)CC1` stands 0.41 nM.

Broadly, the EC50 is the midpoint of the concentration-response curve.
